Assay results taken from ChEMBL document CHEMBL3885861, “Open TG-GATES”.

Species on record: Rattus norvegicus
Assay: Open TG-GATES - Regimen: Daily Repeat
Type: toxicity, organism-based, Sprague-Dawley
Set-up: regimen Daily Repeat, gender Male, age 6 weeks
Conditions: in vivo, po, 600 mg/kg, route gavage, dose level High; for APTT / Bas / Eos / Fbg / Hb / Ht / Lym / MCH / MCHC / MCV / Mono / Neu / PT / Plat / RBC / Ret / WBC: tissue Blood; for KIDNEY_L / KIDNEY_R / KIDNEY_TOTAL: tissue Kidney; for LIVER: tissue Liver; for A/G / ALP / ALT / AST / BUN / CRE / Ca / Cl / DBIL / GLC / IP / K / LDH / Na / PL / RALB / TBIL / TC / TG / TP / gamma-GTP: tissue Plasma

For `CCOC(=O)[C@H](CCc1ccccc1)N[C@@H](C)C(=O)N1CCC[C@H]1C(=O)O`, the TERMINAL_BW (72 h, time 3 day) was 244.3 g, the APTT (72 h, time 3 day) was 16 s and the Bas (72 h, time 3 day) was 0%. The Eos (72 h, time 3 day) was 1.4%, the Fbg (72 h, time 3 day) was 232.8 mg/dL and the Hb (72 h, time 3 day) was 13 g/dL. It also gave a Ht (72 h, time 3 day) of 38.8%, a Lym (72 h, time 3 day) of 79.6% and an MCH (72 h, time 3 day) of 20.9 pg. It also gave an MCHC (72 h, time 3 day) of 33.4%, an MCV (72 h, time 3 day) of 62.5 fL and a Mono (72 h, time 3 day) of 6.6%. The Neu (72 h, time 3 day) was 12.2%, the PT (72 h, time 3 day) was 11.6 s and the Plat (72 h, time 3 day) was 116.5 x10_4/uL. The RBC (72 h, time 3 day) was 620.6 x10_4/ul, the Ret (72 h, time 3 day) was 4.9% and the WBC (72 h, time 3 day) was 116.9 x10_2/uL. The KIDNEY_L (72 h, time 3 day) was 1 g, the KIDNEY_R (72 h, time 3 day) was 1.1 g and the KIDNEY_TOTAL (72 h, time 3 day) was 2.1 g. For the same compound, the LIVER (72 h, time 3 day) was 11.4 g, the A/G (72 h, time 3 day) was 1.8 and the ALP (72 h, time 3 day) was 892.2 IU/L. It also gave an ALT (72 h, time 3 day) of 33.2 IU/L, an AST (72 h, time 3 day) of 58.2 IU/L and a BUN (72 h, time 3 day) of 25.2 mg/dL. For the same compound, the CRE (72 h, time 3 day) was 0.5 mg/dL, the Ca (72 h, time 3 day) was 11 mg/dL and the Cl (72 h, time 3 day) was 104 meq/L. For the same compound, the DBIL (72 h, time 3 day) was 0.02 mg/dL, the GLC (72 h, time 3 day) was 193.2 mg/dL and the IP (72 h, time 3 day) was 8.9 mg/dL. It also gave a K (72 h, time 3 day) of 4.9 meq/L, an LDH (72 h, time 3 day) of 83.6 IU/L and a Na (72 h, time 3 day) of 138.8 meq/L. For the same compound, the PL (72 h, time 3 day) was 154.2 mg/dL, the RALB (72 h, time 3 day) was 3.8 g/dL and the TBIL (72 h, time 3 day) was 0.3 mg/dL. For the same compound, the TC (72 h, time 3 day) was 85.8 mg/dL, the TG (72 h, time 3 day) was 93.6 mg/dL and the TP (72 h, time 3 day) was 5.9 g/dL. It also gave a gamma-GTP (72 h, time 3 day) of 1.4 IU/L, a TERMINAL_BW ([…], time 7 day) of 266.1 g and a TERMINAL_BW ([…], time 14 day) of 298.8 g. It also gave a TERMINAL_BW ([…], time 28 day) of 358.5 g, an APTT ([…], time 7 day) of 15.8 s and a Bas ([…], time 7 day) of 0%. It also gave an Eos ([…], time 7 day) of 1.2%, a Fbg ([…], time 7 day) of 228.2 mg/dL and a Hb ([…], time 7 day) of 12.5 g/dL. It also gave a Ht ([…], time 7 day) of 37.8%, a Lym ([…], time 7 day) of 78.2% and an MCH ([…], time 7 day) of 21.1 pg. For the same compound, the MCHC ([…], time 7 day) was 33.2%, the MCV ([…], time 7 day) was 63.8 fL and the Mono ([…], time 7 day) was 6.4%. For the same compound, the Neu ([…], time 7 day) was 14.8%, the PT ([…], time 7 day) was 11.7 s and the Plat ([…], time 7 day) was 110 x10_4/uL. It also gave an RBC ([…], time 7 day) of 593.8 x10_4/ul, a Ret ([…], time 7 day) of 3.8% and a WBC ([…], time 7 day) of 113.9 x10_2/uL. For the same compound, the APTT ([…], time 14 day) was 16.5 s, the Bas ([…], time 14 day) was 0% and the Eos ([…], time 14 day) was 1.2%. It also gave a Fbg ([…], time 14 day) of 232.2 mg/dL, a Hb ([…], time 14 day) of 12.6 g/dL and a Ht ([…], time 14 day) of 37.8%. The Lym ([…], time 14 day) was 80%, the MCH ([…], time 14 day) was 20.7 pg and the MCHC ([…], time 14 day) was 33.4%. The MCV ([…], time 14 day) was 61.9 fL, the Mono ([…], time 14 day) was 4.2% and the Neu ([…], time 14 day) was 14.4%. The PT ([…], time 14 day) was 11.7 s, the Plat ([…], time 14 day) was 102.3 x10_4/uL and the RBC ([…], time 14 day) was 611.2 x10_4/ul. The Ret ([…], time 14 day) was 3.3%, the WBC ([…], time 14 day) was 122.6 x10_2/uL and the APTT ([…], time 28 day) was 16 s. The Bas ([…], time 28 day) was 0%, the Eos ([…], time 28 day) was 1% and the Fbg ([…], time 28 day) was 249.8 mg/dL. It also gave a Hb ([…], time 28 day) of 13.9 g/dL, a Ht ([…], time 28 day) of 41.5% and a Lym ([…], time 28 day) of 84.2%. It also gave an MCH ([…], time 28 day) of 19.4 pg, an MCHC ([…], time 28 day) of 33.5% and an MCV ([…], time 28 day) of 57.9 fL. For the same compound, the Mono ([…], time 28 day) was 4.8%, the Neu ([…], time 28 day) was 9.8% and the PT ([…], time 28 day) was 11.6 s. For the same compound, the Plat ([…], time 28 day) was 114.3 x10_4/uL, the RBC ([…], time 28 day) was 717.4 x10_4/ul and the Ret ([…], time 28 day) was 5%. The WBC ([…], time 28 day) was 148.4 x10_2/uL, the KIDNEY_L ([…], time 7 day) was 1.2 g and the KIDNEY_R ([…], time 7 day) was 1.3 g. It also gave a KIDNEY_TOTAL ([…], time 7 day) of 2.5 g, a KIDNEY_L ([…], time 14 day) of 1.3 g and a KIDNEY_R ([…], time 14 day) of 1.3 g. The KIDNEY_TOTAL ([…], time 14 day) was 2.7 g, the KIDNEY_L ([…], time 28 day) was 1.7 g and the KIDNEY_R ([…], time 28 day) was 1.7 g. For the same compound, the KIDNEY_TOTAL ([…], time 28 day) was 3.4 g, the LIVER ([…], time 7 day) was 12.4 g and the LIVER ([…], time 14 day) was 13 g. It also gave an LIVER ([…], time 28 day) of 14.8 g, an A/G ([…], time 7 day) of 1.9 and an ALP ([…], time 7 day) of 795.8 IU/L. For the same compound, the ALT ([…], time 7 day) was 26.8 IU/L, the AST ([…], time 7 day) was 59 IU/L and the BUN ([…], time 7 day) was 40.4 mg/dL. It also gave a CRE ([…], time 7 day) of 0.6 mg/dL, a Ca ([…], time 7 day) of 10.6 mg/dL and a Cl ([…], time 7 day) of 105.2 meq/L. It also gave a DBIL ([…], time 7 day) of 0.002 mg/dL, a GLC ([…], time 7 day) of 199.6 mg/dL and an IP ([…], time 7 day) of 8 mg/dL. It also gave a K ([…], time 7 day) of 5.1 meq/L, an LDH ([…], time 7 day) of 97 IU/L and a Na ([…], time 7 day) of 137.4 meq/L. For the same compound, the PL ([…], time 7 day) was 144 mg/dL, the RALB ([…], time 7 day) was 3.7 g/dL and the TBIL ([…], time 7 day) was 0.4 mg/dL. It also gave a TC ([…], time 7 day) of 80.6 mg/dL, a TG ([…], time 7 day) of 85.2 mg/dL and a TP ([…], time 7 day) of 5.7 g/dL. It also gave a gamma-GTP ([…], time 7 day) of 1.2 IU/L, an A/G ([…], time 14 day) of 1.8 and an ALP ([…], time 14 day) of 654.8 IU/L. It also gave an ALT ([…], time 14 day) of 26.8 IU/L, an AST ([…], time 14 day) of 58.6 IU/L and a BUN ([…], time 14 day) of 38.2 mg/dL. The CRE ([…], time 14 day) was 0.6 mg/dL, the Ca ([…], time 14 day) was 10.9 mg/dL and the Cl ([…], time 14 day) was 104.4 meq/L. The DBIL ([…], time 14 day) was 0.006 mg/dL, the GLC ([…], time 14 day) was 191 mg/dL and the IP ([…], time 14 day) was 8.9 mg/dL. The K ([…], time 14 day) was 4.8 meq/L, the LDH ([…], time 14 day) was 90.4 IU/L and the Na ([…], time 14 day) was 137 meq/L. For the same compound, the PL ([…], time 14 day) was 149 mg/dL, the RALB ([…], time 14 day) was 3.9 g/dL and the TBIL ([…], time 14 day) was 0.3 mg/dL. For the same compound, the TC ([…], time 14 day) was 78.8 mg/dL, the TG ([…], time 14 day) was 81.2 mg/dL and the TP ([…], time 14 day) was 6.1 g/dL. It also gave a gamma-GTP ([…], time 14 day) of 1.2 IU/L, an A/G ([…], time 28 day) of 1.7 and an ALP ([…], time 28 day) of 553.2 IU/L. The ALT ([…], time 28 day) was 23.8 IU/L, the AST ([…], time 28 day) was 65.2 IU/L and the BUN ([…], time 28 day) was 44 mg/dL. The CRE ([…], time 28 day) was 0.7 mg/dL, the Ca ([…], time 28 day) was 10.9 mg/dL and the Cl ([…], time 28 day) was 105.2 meq/L. The DBIL ([…], time 28 day) was 0.062 mg/dL, the GLC ([…], time 28 day) was 195.4 mg/dL and the IP ([…], time 28 day) was 7.4 mg/dL. The K ([…], time 28 day) was 4.9 meq/L, the LDH ([…], time 28 day) was 100.2 IU/L and the Na ([…], time 28 day) was 137.6 meq/L. For the same compound, the PL ([…], time 28 day) was 150.2 mg/dL, the RALB ([…], time 28 day) was 3.9 g/dL and the TBIL ([…], time 28 day) was 0.3 mg/dL. The TC ([…], time 28 day) was 75.4 mg/dL, the TG ([…], time 28 day) was 97.8 mg/dL and the TP ([…], time 28 day) was 6.1 g/dL. For the same compound, the gamma-GTP ([…], time 28 day) was 1.8 IU/L.
